Laboratory results as given in EP0347733A1, “Optically active hydantoin derivatives” (Eisai Co., Ltd., priority 1988, dated 1989).

How the values were obtained:
[1] = test system: aconitine-induced arrhythmia; experiment: aconitine-induced arrhythmia model of mice; format: in vivo; conditions: orally administered one hour before intraperitoneal injection of 0.1 mg/kg of aconitine, tachycardia and frequency of ventricular extrasystole from the electrocardiogram, 60 min
Description: The antiarrythmic activity of the compound of the present invention was examined with aconitine-induced arrhythmia model of mice. When 0.1 mg/kg of aconitine is intraperitoneally injected, usually ventricular tachycardia occurs within 20 minutes. The compound of the present invention (d- or ℓ-compound) was orally administered one hour before the intraperitoneal injection of 0.1 mg/kg of aconitine and the tachycardia and the frequency of ventricular extrasystole were determined from the electrocardiogram to determine the antiarrhythmic activity (ED₅₀). The ED₅₀ of the d-compound was 40 mg/kg and that of the ℓ-compound was 5 mg/kg.

[2] = test system: mice; experiment: acute toxicity tests with mice; format: in vivo
Description: In the acute toxicity tests with mice, LD₅₀ of the d-compound was 700 mg/kg and that of the ℓ-compound was 200 mg/kg.

[3] = test system: myocardial contraction; experiment: influence on myocardial contraction; conditions: amount several times as much as the antiarrhythmically effective amount
Text: One of the pharmacological features of the compounds of the present invention is that they inhibit myocardial contraction only very slightly. This is a quite desirable property when they are used as the antiarrhythmic agents.

Row | SMILES | antiarrhythmic activity (ED₅₀) [1] [mg/kg] | LD₅₀ [2] [mg/kg] | influence on the myocardial contraction [3]
1 | CC1(C)CC2(NC(=O)N(CCCN3CCC(O)CC3)C2=O)c2cc(Cl)ccc2O1 (single isomer, unassigned) [d-compound, d-6-Chloro-2,2-dimethyl-1′-[3-(4-hydroxypiperidino)propyl]spiro[chroman-4,4′-imidazolidine]-2′,5′-dione] | 40 | 700 | –
2 | C=C[C@H]1C[N@@]2CC[C@H]1C[C@@H]2[C@@H](O)c1ccnc2ccc(OC)cc12 [quinidine] | – | – | reduce myocardial contraction
3 | CC1(C)CC2(NC(=O)N(CCCN3CCC(O)CC3)C2=O)c2cc(Cl)ccc2O1 (single isomer, unassigned) [ℓ-compound, ℓ-6-Chloro-2,2-dimethyl-1′-[3-(4-hydroxypiperidino)propyl]spiro[chroman-4,4′-imidazolidine]-2′,5′-dione] | 5 | 200 | –
4 | CC(C)N(CCC(C(N)=O)(c1ccccc1)c1ccccn1)C(C)C (stereo not drawn) [disopyramide] | – | – | reduce myocardial contraction
